Experimental data: patent US20030134842A1, “METHODS FOR THE TREATMENT OR PREVENTION OF INFLAMMATORY DISEASES CHARACTERIZED BY ABNORMAL CELL PROLIFERATION” (priority 1997, published 2003)
Where two headings read alike, the source gives them in different places.

Experiments:
Type in all cases: cell-based
[1] = system: NIH 3T3 mouse fibroblast cells; experiment: Mitogenic assay (mitogen-induced cell proliferation); conditions: for IC50: mitogen-induced cell proliferation
[2] = biological target: T1, Ca2+-activated potassium channel (Gardos channel) of erythrocytes (Homo sapiens, UniProt O15554); experiment: Gardos channel assay
T1 construct: endogenous in cells; host or cells: erythrocytes

MCF7 = experiment: SRB antiproliferative assay MCF7; conditions: Homo sapiens
Text: (§1) The cells were passaged using Trypsin (Gibco).

A549 = experiment: SRB antiproliferative assay A549; conditions: Homo sapiens
Text: as §1

HTB174 = experiment: SRB antiproliferative assay HTB174; conditions: HTB174 (Lung), 5% FCS/5 day incubation; read-out: Test Compound IC50
Text: as §1

HEPG2 = experiment: SRB antiproliferative assay HEPG2; conditions: Homo sapiens
Text: as §1

MMRU = experiment: SRB antiproliferative assay MMRU; conditions: Homo sapiens
Text: as §1

HT29 = experiment: SRB antiproliferative assay HT29; conditions: Homo sapiens
Text: as §1

U118MG = experiment: SRB antiproliferative assay U118MG; conditions: Homo sapiens, U-118-MG; U118MG, 5% FCS/3 days; read-out: Test Compound IC50 Value in Cell Lines
Text: as §1

[3] = Mus musculus, NIH3T3, NIH 3T3 mouse fibroblast cells
[4] = MCF7 (Breast), 5% FCS/5 day incubation, read-out: Test Compound IC50
[5] = A549, A549 (Lung), 5% FCS/5 day incubation, read-out: Test Compound IC50
[6] = HEPG2 (Hepatocel), 5% FCS/5 day incubation, read-out: Test Compound IC50
[7] = MMRU (Melanoma), 5% FCS/5 day incubation, read-out: Test Compound IC50
[8] = HT-29, HT29 (Colon), 5% FCS/5 day incubation, read-out: Test Compound IC50
[9] = A549, A549, 5% FCS/2 days, read-out: Test Compound IC50 Value in Cell Lines
[10] = MMRU, 5% FCS/2 days, read-out: Test Compound IC50 Value in Cell Lines
[11] = HT-29, HT29, 5% FCS/2 days, read-out: Test Compound IC50 Value in Cell Lines
[12] = MCF7, 5% FCS/3 days, read-out: Test Compound IC50 Value in Cell Lines
[13] = A549, A549, 5% FCS/3 days, read-out: Test Compound IC50 Value in Cell Lines
[14] = HEPG2, 5% FCS/3 days, read-out: Test Compound IC50 Value in Cell Lines
[15] = MMRU, 5% FCS/3 days, read-out: Test Compound IC50 Value in Cell Lines
[16] = HT-29, HT29, 5% FCS/3 days, read-out: Test Compound IC50 Value in Cell Lines

T1 sequence (O15554 whole entry): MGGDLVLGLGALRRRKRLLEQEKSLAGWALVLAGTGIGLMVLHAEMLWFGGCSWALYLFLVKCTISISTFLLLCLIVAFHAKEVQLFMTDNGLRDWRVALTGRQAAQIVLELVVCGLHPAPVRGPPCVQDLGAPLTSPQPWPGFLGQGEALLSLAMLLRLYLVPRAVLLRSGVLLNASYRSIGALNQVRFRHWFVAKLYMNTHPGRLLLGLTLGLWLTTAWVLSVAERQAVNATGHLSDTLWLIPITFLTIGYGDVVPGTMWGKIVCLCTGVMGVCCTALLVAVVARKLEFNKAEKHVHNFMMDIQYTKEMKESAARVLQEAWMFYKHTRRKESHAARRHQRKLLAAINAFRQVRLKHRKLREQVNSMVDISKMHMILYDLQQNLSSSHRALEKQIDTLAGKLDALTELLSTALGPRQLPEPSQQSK

Compound	IC50 [1, 3]	inhibition at 10 µM ([2]; 10 μM compound)	IC50 (MCF7; [4])	IC50 (A549; [5])	IC50 (HTB174)	IC50 (HEPG2; [6])	IC50 (MMRU; [7])	IC50 (HT29; [8])	IC50 [2]	further results
O=C(c1ccc(Cl)cc1)N1Cc2ccccc2C(c2ccccc2)c2ccccc21 (centres unmarked) [Compound 13]	1700 nM	0%	2700 nM	3100 nM	1400 nM	1800 nM	1500 nM	1500 nM	–	–
O=C(O)C(=O)N1Cc2ccccc2C(c2ccccc2)c2ccccc21 (centres unmarked) [Compound 11]	–	9.5%	–	–	–	–	–	–	> 10000 nM	–
COC(=O)N1Cc2ccccc2C(c2ccccc2)c2ccccc21 (centres unmarked) [Compound 6]	–	97.5%	–	–	–	–	–	–	236 nM	IC50 (A549; [9]): > 10000 nM; IC50 (MMRU; [10]): 10000 nM; IC50 (HT29; [11]): > 10000 nM
CN1Cc2ccccc2C(c2ccccc2)c2ccccc21 (centres unmarked) [Compound 2]	5200 nM	99%	–	–	–	–	–	–	1300 nM	–
Clc1ccc2c(c1)C(c1ccccc1)c1cc3ccccc3cc1CN2 (centres unmarked) [Compound 15]	–	9.5%	–	–	–	–	–	–	> 10000 nM	–
O=C(Nc1ccccc1)N1Cc2ccccc2C(c2ccccc2Cl)c2ccccc21 (centres unmarked) [Compound 32]	1100 nM	0%	–	–	–	–	–	–	–	IC50 (MCF7; [12]): 5400 nM; IC50 (A549; [13]): 6900 nM; IC50 (HEPG2; [14]): 6200 nM; IC50 (MMRU; [15]): 4900 nM; IC50 (HT29; [16]): 6300 nM; IC50 (U118MG): 6800 nM
O=C(Nc1ccc([N+](=O)[O-])cc1)N1Cc2ccccc2C(c2ccccc2Cl)c2ccccc21 (centres unmarked) [Compound 35]	–	98.3%	2400 nM	> 5000 nM	4000 nM	4500 nM	3100 nM	4800 nM	71 to 99 nM	IC50 (A549; [9]): > 10000 nM; IC50 (MMRU; [10]): > 10000 nM; IC50 (HT29; [11]): 10000 nM
Clc1ccccc1C1c2ccccc2CNc2ccccc21 (centres unmarked) [Compound 3]	2400 nM	97.4%	–	–	–	–	–	–	886 nM	–
Clc1ccccc1C1c2ccccc2CN(Cc2ccccc2)c2ccccc21 (centres unmarked) [Compound 8]	2200 nM	0%	–	–	–	–	–	–	–	–
COc1ccc2c(c1)CN(C(=O)c1ccc(Cl)cc1)c1ccc(Cl)cc1C2c1ccccc1Cl (centres unmarked) [Compound 23]	–	18.2%	3100 nM	3400 nM	1800 nM	2300 nM	2200 nM	2100 nM	> 10000 nM	–
COc1cccc2c1C(c1ccccc1Cl)c1cc(Cl)ccc1N(C(=O)c1ccc(Cl)cc1)C2 (centres unmarked) [Compound 24]	–	32 to 55%	–	–	–	–	–	–	> 10000 nM	–
O=C(c1ccccc1)N1Cc2ccccc2C(c2ccccc2)c2ccccc21 (centres unmarked) [Compound 16]	1700 nM	0.45%	4200 nM	> 5000 nM	2600 nM	3400 nM	2700 nM	2600 nM	> 10000 nM	–
c1ccc(CN2Cc3ccccc3C(c3ccccc3)c3ccccc32)cc1 (centres unmarked) [Compound 5]	–	14.4%	–	–	–	–	–	–	> 10000 nM	IC50 (A549; [9]): 1400 nM; IC50 (MMRU; [10]): > 10000 nM; IC50 (HT29; [11]): 1000 nM
Nc1ccc(C(=O)N2Cc3ccccc3C(c3ccccc3Cl)c3ccccc32)cc1 (centres unmarked) [Compound 34]	4000 nM	12%	2000 nM	> 5000 nM	900 nM	1500 nM	1200 nM	1600 nM	> 10000 nM	IC50 (A549; [9]): > 10000 nM; IC50 (MMRU; [10]): > 10000 nM; IC50 (HT29; [11]): 6800 nM
CN1Cc2ccccc2C(c2ccccc2)c2cc(Br)ccc21 (centres unmarked) [Compound 7]	1600 nM	35.8%	–	–	–	–	–	–	> 10000 nM	IC50 (A549; [9]): > 10000 nM; IC50 (MMRU; [10]): > 10000 nM; IC50 (HT29; [11]): > 10000 nM
COc1ccc2c(c1)CNc1ccc(Cl)cc1C2c1ccccc1Cl (centres unmarked) [Compound 19]	1600 nM	52%	–	–	–	–	–	–	> 10000 nM	–
CN1Cc2ccccc2C(c2ccccc2Cl)c2ccccc21 (centres unmarked) [Compound 29]	–	–	–	–	–	–	–	–	–	Mitogenic Assay Inhibition ([1]; 10 µM compound, NIH 3T3 mouse fibroblast cells): 99.0%; IC50 ([1]; NIH 3T3 mouse fibroblast cells): 800 nM; Gardos Channel Assay Inhibition ([2]; 10 μM compound, 10 µM): 95.1%; IC50 (A549; [9]): > 10000 nM; IC50 (MMRU; [10]): > 10000 nM; IC50 (HT29; [11]): > 10000 nM
CNc1ccc(C(=O)N2Cc3ccccc3C(c3ccccc3Cl)c3ccccc32)cc1 (centres unmarked) [Compound 33]	2400 nM	67.5%	2100 nM	3100 nM	1400 nM	1400 nM	1300 nM	1200 nM	> 10000 nM	IC50 (MCF7; [12]): 5400 nM; IC50 (A549; [13]): 6900 nM; IC50 (HEPG2; [14]): 6200 nM; IC50 (MMRU; [15]): 4900 nM; IC50 (HT29; [16]): 6300 nM; IC50 (U118MG): 6800 nM
O=C(c1ccc2ccccc2c1)N1Cc2ccccc2C(c2ccccc2)c2ccccc21 (centres unmarked) [Compound 25]	–	8.5%	–	–	–	–	–	–	> 10000 nM	–
COc1ccc2c(c1)CNc1ccccc1C2(c1ccccc1)c1ccc(F)cc1 (centres unmarked) [Compound 12]	–	54.8%	–	–	–	–	–	–	> 10000 nM	–
COc1cccc(C(=O)N2Cc3ccccc3C(c3ccccc3)c3ccccc32)c1 (centres unmarked) [Compound 17]	1600 nM	20.6%	4500 nM	> 5000 nM	3600 nM	2600 nM	2500 nM	1700 nM	> 10000 nM	–
COc1cccc2c1C(c1ccccc1Cl)c1cc(Cl)ccc1NC2 (centres unmarked) [Compound 18]	2600 nM	81.5%	–	–	–	–	–	–	502 to 692 nM	–
Cc1ccc(C(=O)N2Cc3ccccc3C(c3ccccc3)c3ccccc32)cc1 (centres unmarked) [Compound 22]	3600 nM	14.9%	1800 nM	1900 nM	1400 nM	1400 nM	900 nM	700 nM	> 10000 nM	–
CN1Cc2ccccc2C(c2ccccc2Cl)c2ccccc21 (centres unmarked) [Compound 4]	1500 nM	98.1%	–	–	–	–	–	–	384 nM	IC50 (MCF7; MCF7, 2% FCS/3 days, read-out: Test Compound IC50 Value in Cell Lines): 1700 nM; IC50 (A549; A549, A549, 2% FCS/3 days, read-out: Test Compound IC50 Value in Cell Lines): 11400 nM; IC50 (MMRU; MMRU, 2% FCS/3 days, read-out: Test Compound IC50 Value in Cell Lines): 4600 nM; IC50 (HT29; HT-29, HT29, 2% FCS/3 days, read-out: Test Compound IC50 Value in Cell Lines): 9700 nM
c1ccc(C2c3ccccc3CNc3ccccc32)cc1 (centres unmarked) [Compound 1]	–	75.2%	–	–	–	–	–	–	775 nM	–
CCOC(=O)C(=O)N1Cc2ccccc2C(c2ccccc2)c2ccccc21 (centres unmarked) [Compound 10]	–	63%	–	–	–	–	–	–	1530 to 1940 nM	–
COc1ccc(C(=O)N2Cc3ccccc3C(c3ccccc3)c3ccccc32)cc1 (centres unmarked) [Compound 21]	2700 nM	2.1%	3500 nM	4200 nM	1900 nM	1900 nM	1500 nM	1800 nM	> 10000 nM	–
